# Test: Phase I safety: adverse events, adverse drug reactions, DLTs in patients with advanced solid tumors
# Format: in vivo, human
# Conditions: for Adverse drug reactions: ALT increased / Adverse drug reactions: AST increased / Adverse drug reactions: Any events / Adverse drug reactions: Blood AP increased / Adverse drug reactions: Decreased appetite / Adverse drug reactions: Diarrhea / Adverse drug reactions: Dry skin / Adverse drug reactions: GGT increased / Adverse drug reactions: GI disorders / Adverse drug reactions: General disorders and administration site conditions / Adverse drug reactions: Hyperglycemia / Adverse drug reactions: Investigations / Adverse drug reactions: Metabolism and nutrition disorders / Adverse drug reactions: Nausea / Adverse drug reactions: Neutrophil count decreased / Adverse drug reactions: Pruritus / Adverse drug reactions: Pyrexia / Adverse drug reactions: Rash maculo-papular / Adverse drug reactions: Skin and SC tissue disorders / Adverse drug reactions: Stomatitis / Adverse drug reactions: Vomiting / Adverse drug reactions: WBC count decreased / Adverse events: ALT increased / Adverse events: AST increased / Adverse events: Any events / Adverse events: Blood AP increased / Adverse events: Decreased appetite / Adverse events: Diarrhea / Adverse events: Dry skin / Adverse events: GGT increased / Adverse events: GI disorders / Adverse events: General disorders and administration site conditions / Adverse events: Hyperglycemia / Adverse events: Investigations / Adverse events: Metabolism and nutrition disorders / Adverse events: Nausea / Adverse events: Neutrophil count decreased / Adverse events: Pruritus / Adverse events: Pyrexia / Adverse events: Rash maculo-papular / Adverse events: Skin and SC tissue disorders / Adverse events: Stomatitis / Adverse events: Vomiting / Adverse events: WBC count decreased: DEP n = 12
# Excerpt: This was a phase I, open-label, non-randomized, dose-escalating first-in-human study to evaluate the safety, pharmacokinetics, antitumor activity, pharmacodynamics, and pharmacogenomics of TAS-117 in patients with advanced solid tumors. The study had three phases: a dose escalation phase (DEP), a regimen modification phase (RMP), and a safety assessment phase (SAP). The treatment cycle on each regimen lasted 21 days. The DEP used an accelerated titration and 3 + 3 design. TAS-117 was administered orally once daily (QD) on an empty stomach (1 h before or 2 h after a meal). Dosing was determined based on a 4-week repeated oral-dose toxicology study in monkeys (data on file, Taiho Pharmaceutical Co., Ltd.); the highest non-severely toxic dose was 1.2 mg/kg/day, which was converted to 3.84 mg/body/day, or 2.4 mg/m^2. Therefore, the starting dose was determined to be ≤ 2.4 mg/m^2. At dose level 1, TAS-117 was administered at 2 mg QD (Day − 2), and the dose was increased to 4 mg QD after 2 days (Day 1). The RMP was conducted according to a 3 + 3 design. During this phase, the dose regimen was changed from QD administration to intermittent dosing of daily TAS-117 with 4 days on/3 days off. TAS-117 was administered on an empty stomach. Dose-limiting toxicities (DLTs) were evaluated in Cycle 1 of the DEP and RMP. […] The RD and regimen for the SAP were determined based on the safety, pharmacokinetics, pharmacodynamics, and antitumor activity profile determined in the DEP and RMP. During the SAP, the safety and preliminary efficacy profiles of TAS-117 were assessed at the RD and recommended regimen. Three cohorts were included in this assessment. Cohort 1 included patients with endometrial cancer with a PIK3CA mutation; cohort 2 included patients with endometrial cancer with an AKT1 mutation, AKT1 amplification, or AKT2 amplification; and cohort 3 included patients with ovarian clear cell carcinoma.
# The primary endpoints were the proportion of patients who experienced DLTs in Cycle 1 of the DEP and RMP and the incidence of adverse events (AEs) and adverse drug reactions (ADRs) in the SAP. AEs and ADRs were coded using the Medical Dictionary for Regulatory Activities (MedDRA; version 24.1) and graded according to the National Cancer Institute Common Terminology Criteria for Adverse Events (CTCAE; version 4.03). Secondary endpoints were pharmacokinetic findings, changes in the ratio of phosphorylated PRAS40 (pPRAS40)/total PRAS40 from baseline, efficacy, and pharmacogenomics findings.
compound,measurement,setting,value
C[C@]1(O)C[C@@](N)(c2ccc(-c3nc4n(c3-c3ccccc3)COc3ccncc3-4)cc2)C1 [TAS-117],Grade 2 maculopapular rash requiring study interruption,DEP dose level 4 (24 mg QD),All patients
same,Adverse drug reactions: ALT increased,All grade,1 (8.3) n (%)
same,Adverse drug reactions: AST increased,All grade,1 (8.3) n (%)
same,Adverse drug reactions: Any events,All grade,11 (91.7) n (%)
same,Adverse drug reactions: Blood AP increased,All grade,1 (8.3) n (%)
same,Adverse drug reactions: Decreased appetite,All grade,2 (16.7) n (%)
same,Adverse drug reactions: Diarrhea,All grade,1 (8.3) n (%)
same,Adverse drug reactions: Dry skin,All grade,0 (0.0) n (%)
same,Adverse drug reactions: GGT increased,All grade,1 (8.3) n (%)
same,Adverse drug reactions: GI disorders,All grade,4 (33.3) n (%)
same,Adverse drug reactions: General disorders and administration site conditions,All grade,2 (16.7) n (%)
same,Adverse drug reactions: Hyperglycemia,All grade,4 (33.3) n (%)
same,Adverse drug reactions: Investigations,All grade,5 (41.7) n (%)
same,Adverse drug reactions: Metabolism and nutrition disorders,All grade,5 (41.7) n (%)
same,Adverse drug reactions: Nausea,All grade,1 (8.3) n (%)
same,Adverse drug reactions: Neutrophil count decreased,All grade,3 (25.0) n (%)
same,Adverse drug reactions: Pruritus,All grade,1 (8.3) n (%)
same,Adverse drug reactions: Pyrexia,All grade,1 (8.3) n (%)
same,Adverse drug reactions: Rash maculo-papular,All grade,9 (75.0) n (%)
same,Adverse drug reactions: Skin and SC tissue disorders,All grade,11 (91.7) n (%)
same,Adverse drug reactions: Stomatitis,All grade,3 (25.0) n (%)
same,Adverse drug reactions: Vomiting,All grade,2 (16.7) n (%)
same,Adverse drug reactions: WBC count decreased,All grade,3 (25.0) n (%)
same,Adverse events: ALT increased,All grade,3 (25.0) n (%)
same,Adverse events: AST increased,All grade,3 (25.0) n (%)
same,Adverse events: Any events,All grade,11 (91.7) n (%)
same,Adverse events: Blood AP increased,All grade,2 (16.7) n (%)
same,Adverse events: Decreased appetite,All grade,5 (41.7) n (%)
same,Adverse events: Diarrhea,All grade,3 (25.0) n (%)
same,Adverse events: Dry skin,All grade,0 (0.0) n (%)
same,Adverse events: GGT increased,All grade,2 (16.7) n (%)
same,Adverse events: GI disorders,All grade,7 (58.3) n (%)
same,Adverse events: General disorders and administration site conditions,All grade,5 (41.7) n (%)
same,Adverse events: Hyperglycemia,All grade,4 (33.3) n (%)
same,Adverse events: Investigations,All grade,6 (50.0) n (%)
same,Adverse events: Metabolism and nutrition disorders,All grade,9 (75.0) n (%)
same,Adverse events: Nausea,All grade,2 (16.7) n (%)
same,Adverse events: Neutrophil count decreased,All grade,3 (25.0) n (%)
same,Adverse events: Pruritus,All grade,1 (8.3) n (%)
same,Adverse events: Pyrexia,All grade,1 (8.3) n (%)
same,Adverse events: Rash maculo-papular,All grade,9 (75.0) n (%)
same,Adverse events: Skin and SC tissue disorders,All grade,11 (91.7) n (%)
same,Adverse events: Stomatitis,All grade,3 (25.0) n (%)
same,Adverse events: Vomiting,All grade,3 (25.0) n (%)
same,Adverse events: WBC count decreased,All grade,3 (25.0) n (%)
same,Adverse drug reactions: ALT increased,≥ Grade 3,0 (0.0) n (%)
same,Adverse drug reactions: AST increased,≥ Grade 3,0 (0.0) n (%)
same,Adverse drug reactions: Any events,≥ Grade 3,3 (25.0) n (%)
same,Adverse drug reactions: Blood AP increased,≥ Grade 3,0 (0.0) n (%)
same,Adverse drug reactions: Decreased appetite,≥ Grade 3,0 (0.0) n (%)
same,Adverse drug reactions: Diarrhea,≥ Grade 3,0 (0.0) n (%)
same,Adverse drug reactions: Dry skin,≥ Grade 3,0 (0.0) n (%)
same,Adverse drug reactions: GGT increased,≥ Grade 3,0 (0.0) n (%)
same,Adverse drug reactions: GI disorders,≥ Grade 3,0 (0.0) n (%)
same,Adverse drug reactions: General disorders and administration site conditions,≥ Grade 3,0 (0.0) n (%)
same,Adverse drug reactions: Hyperglycemia,≥ Grade 3,2 (16.7) n (%)
same,Adverse drug reactions: Investigations,≥ Grade 3,1 (8.3) n (%)
same,Adverse drug reactions: Metabolism and nutrition disorders,≥ Grade 3,2 (16.7) n (%)
same,Adverse drug reactions: Nausea,≥ Grade 3,0 (0.0) n (%)
same,Adverse drug reactions: Neutrophil count decreased,≥ Grade 3,0 (0.0) n (%)
same,Adverse drug reactions: Pruritus,≥ Grade 3,0 (0.0) n (%)
same,Adverse drug reactions: Pyrexia,≥ Grade 3,0 (0.0) n (%)
same,Adverse drug reactions: Rash maculo-papular,≥ Grade 3,0 (0.0) n (%)
same,Adverse drug reactions: Skin and SC tissue disorders,≥ Grade 3,0 (0.0) n (%)
same,Adverse drug reactions: Stomatitis,≥ Grade 3,0 (0.0) n (%)
same,Adverse drug reactions: Vomiting,≥ Grade 3,0 (0.0) n (%)
same,Adverse drug reactions: WBC count decreased,≥ Grade 3,1 (8.3) n (%)
same,Adverse events: ALT increased,≥ Grade 3,0 (0.0) n (%)
same,Adverse events: AST increased,≥ Grade 3,1 (8.3) n (%)
same,Adverse events: Any events,≥ Grade 3,3 (25.0) n (%)
same,Adverse events: Blood AP increased,≥ Grade 3,1 (8.3) n (%)
same,Adverse events: Decreased appetite,≥ Grade 3,0 (0.0) n (%)
same,Adverse events: Diarrhea,≥ Grade 3,0 (0.0) n (%)
same,Adverse events: Dry skin,≥ Grade 3,0 (0.0) n (%)
same,Adverse events: GGT increased,≥ Grade 3,1 (8.3) n (%)
same,Adverse events: GI disorders,≥ Grade 3,0 (0.0) n (%)
same,Adverse events: General disorders and administration site conditions,≥ Grade 3,0 (0.0) n (%)
same,Adverse events: Hyperglycemia,≥ Grade 3,2 (16.7) n (%)
same,Adverse events: Investigations,≥ Grade 3,3 (25.0) n (%)
same,Adverse events: Metabolism and nutrition disorders,≥ Grade 3,2 (16.7) n (%)
same,Adverse events: Nausea,≥ Grade 3,0 (0.0) n (%)
same,Adverse events: Neutrophil count decreased,≥ Grade 3,0 (0.0) n (%)
same,Adverse events: Pruritus,≥ Grade 3,0 (0.0) n (%)
same,Adverse events: Pyrexia,≥ Grade 3,0 (0.0) n (%)
same,Adverse events: Rash maculo-papular,≥ Grade 3,0 (0.0) n (%)
same,Adverse events: Skin and SC tissue disorders,≥ Grade 3,0 (0.0) n (%)
same,Adverse events: Stomatitis,≥ Grade 3,0 (0.0) n (%)
same,Adverse events: Vomiting,≥ Grade 3,0 (0.0) n (%)
same,Adverse events: WBC count decreased,≥ Grade 3,1 (8.3) n (%)
same,Recommended dose (RD),"QD dosing, patients with advanced or metastatic solid tumors",16 mg
same,DLTs,"RMP dose level 4 (24 mg), intermittent administration",No DLTs

# Source: article PMC11129975, “A first-in-human phase I study of TAS-117, an allosteric AKT inhibitor, in patients with advanced solid tumors” (Cancer Chemotherapy and Pharmacology, 2024)
